Test [1] in a line: Antibacterial activity of acetylated single compound. The class given is cell-based. To be noted: acetylated form. How it is done:
Since fraction II had some impurities, acetylation of the fraction was carried out to change its polarity as a procedure to obtain a single compound with antibacterial activity: 0.5 g of fraction II was dissolved in 5 ml pyridine, added with 5 ml of acetic anhydride in a drop-wise manner at ice-cold temperature, and stirred at room temperature for more than 15 hours. The reactant was subjected to partition extraction with 100 ml of ice-cold water once, and subsequently 100 ml of ethylacetate twice. The ethylacetate phase thus obtained was washed with 5% HCl, NaHCO3 and NaCl, dehydrated with anhydrous MgSO4, filtered and condensed under a reduced pressure. The resultant was finally applied onto a silica gel column(4.7×50 cm), and eluted with a solvent mixture of hexane and ethylacetate(15:1, v/v) to give an acetylated single compound. […] Then, 2 ml of 5% KOH was added to the compound, reacted with stirring for more than 2 hours, and neutralized using cation exchange resin(DOWEX50WX4-400), followed by filtration and condensation to give a single isolated compound. Thereafter, its molecular weight was measured with EI-MS(VG Platform II, FISIONS, 15 eV), and chemical identification was conducted using analytical instruments of ^1H-NMR, ^13C-NMR(400 MHz, CDCl3) and IR(Perkin Elmer spectrum I , DTGS detector). […]

For test [2], the system named is Streptococcus mutans. The test is described as follows: Minimum inhibitory concentration of active fractions. The format is cell-based. How it is done:
The crude extract, prepared in Example 1-1 was applied to a silica gel column chromatography: the crude extract was applied to a column chromatography(5×43 cm) filled with silica gel(Merck, U.S.A.) of 70 to 230 mesh, and eluted with a mixed gradient of hexane and ethylacetate (10:1→3:1→1:1). Then, thin layer chromatography(TLC) was performed with the active fractions obtained in the course of chromatographic procedure to give 8 different fractions(fractions I to VIII ) with similar retention on the TLC plate. Antibacterial activity of the fractions was measured in terms of minimum inhibitory concentration(MIC), and compared to that of vancomycin.

Molecules are shown by their SMILES. Values after ≈ are worked out from the molar mass of the structure shown.

As for `CC(=O)Oc1cc(C(C)CCC=C(C)C)ccc1C` (centres unmarked) [acetylated single compound], the antibacterial activity entry in test [1] is listed as “no antibacterial activity”.
What is called MIC is the least concentration at which growth counts as inhibited. A higher MIC goes with a less susceptible organism. `CN[C@H](CC(C)C)C(=O)N[C@H]1C(=O)N[C@@H](CC(N)=O)C(=O)N[C@H]2C(=O)N[C@H]3C(=O)N[C@H](C(=O)N[C@H](C(=O)O)c4cc(O)cc(O)c4-c4cc3ccc4O)[C@H](O)c3ccc(c(Cl)c3)Oc3cc2cc(c3O[C@@H]2O[C@H](CO)[C@@H](O)[C@H](O)[C@H]2O[C@H]2C[C@](C)(N)[C@H](O)[C@H](C)O2)Oc2ccc(cc2Cl)[C@H]1O` [Vancomycin, vancomycin]: in test [2], the MIC was 1 µg/mL (≈ 0.69 µM).
